`CCOC(=O)c1ccc(-c2nc(COc3ccc(COc4nn(-c5ccccc5)cc4C=O)cc3OC)c(C)o2)o1` [Example 243, ethyl 5-{4-[(4-{[(4-formyl-1-phenyl-1H-pyrazol-3-yl)oxy]methyl}-2-methoxyphenoxy)methyl]-5-methyl-1,3-oxazol-2-yl}-2-furancarboxylate]: the melting point (commonly the temperature, or range, at which the solid turns liquid) lay in the range of 143 to 145 °C.

As for `CCOC(=O)c1ccc(-c2nc(COc3ccc(COc4nn(-c5ccccc5)cc4/C=C/c4csc(CC)n4)cc3OC)c(C)o2)o1` [Example 244 (E form), ethyl 5-[4-({4-[({4-[(E)-2-(2-ethyl-1,3-thiazol-4-yl)ethenyl]-1-phenyl-1H-pyrazol-3-yl}oxy)methyl]-2-methoxyphenoxy}methyl)-5-methyl-1,3-oxazol-2-yl]-2-furancarboxylate], the melting point lay in the range of 150 to 151 °C.

The compound `CCOC(=O)c1ccc(-c2nc(COc3ccc(COc4nn(-c5ccccc5)cc4/C=C\c4csc(CC)n4)cc3OC)c(C)o2)o1` [Example 244 (Z form), ethyl 5-[4-({4-[({4-[(Z)-2-(2-ethyl-1,3-thiazol-4-yl)ethenyl]-1-phenyl-1H-pyrazol-3-yl}oxy)methyl]-2-methoxyphenoxy}methyl)-5-methyl-1,3-oxazol-2-yl]-2-furancarboxylate] had a melting point of 133 to 135 °C.

Turning to `COc1cc(C(=O)Nc2nn(-c3ccccc3)cc2C=O)ccc1OCc1nc(-c2ccccc2)oc1C` [Example 245, N-(4-formyl-1-phenyl-1H-pyrazol-3-yl)-3-methoxy-4-[(5-methyl-2-phenyl-1,3-oxazol-4-yl)methoxy]benzamide], the melting point lay within 234 to 235 °C.

As for `CCOC(=O)Cc1ccc(-c2nc(COc3ccc(COc4nn(-c5ccccc5)cc4C=O)cc3OC)c(C)o2)cc1` [Example 246, ethyl (4-{4-[(4-{[(4-formyl-1-phenyl-1H-pyrazol-3-yl)oxy]methyl}-2-methoxyphenoxy)methyl]-5-methyl-1,3-oxazol-2-yl}phenyl)acetate], the melting point is 157 to 158 °C.

Regarding `CCOC(=O)Cc1cccc(-c2nc(COc3ccc(COc4nn(-c5ccccc5)cc4C=O)cc3OC)c(C)o2)c1` [Example 253, ethyl (3-{4-[(4-{[(4-formyl-1-phenyl-1H-pyrazol-3-yl)oxy]methyl}-2-methoxyphenoxy)methyl]-5-methyl-1,3-oxazol-2-yl}phenyl)acetate], the melting point was in the range of 145 to 146 °C.

Regarding `COC(=O)c1cc(-c2nc(COc3ccc(COc4nn(-c5ccccc5)cc4C=O)cc3OC)c(C)o2)ccc1OS(C)(=O)=O` [Example 255, methyl 5-{4-[(4-{[(4-formyl-1-phenyl-1H-pyrazol-3-yl)oxy]methyl}-2-methoxyphenoxy)methyl]-5-methyl-1,3-oxazol-2-yl}-2-(methanesulfonyloxy)benzoate], the melting point lay in the range of 136 to 137 °C.

As for `COC(=O)c1cc(-c2nc(COc3ccc(COc4nn(-c5ccccc5)cc4C=O)cc3OC)c(C)o2)ccc1OC` [Example 256, methyl 5-{4-[(4-{[(4-formyl-1-phenyl-1H-pyrazol-3-yl)oxy]methyl}2-methoxyphenoxy)methyl]-5-methyl-1,3-oxazol-2-yl}-2-methoxybenzoate], the melting point lay within 165 to 166 °C.

For the compound `CCOC(=O)/C=C/c1nc(-c2ccccc2)oc1COc1ccc(OCc2nc(-c3ccccc3)oc2C)cc1` [Example 258, ethyl (2E)-3-[5-({4-[(5-methyl-2-phenyl-1,3-oxazol-4-yl)methoxy]phenoxy}methyl)-2-phenyl-1,3-oxazol-4-yl]-2-propenoate], the melting point was in the range of 107 to 108 °C.

`CCOC(=O)/C=C/c1cn(Cc2ccccc2)nc1OCc1ccc(OCc2nc(-c3ccco3)oc2C)c(OC)c1` [Example 259, ethyl (2E)-3-{1-benzyl-3-[(4-{[2-(2-furyl)-5-methyl-1,3-oxazol-4-yl]methoxy}-3-methoxybenzyl)oxy]-1H-pyrazol-4-yl}-2-propenoate] gave a melting point of 147 to 148 °C.

For the compound `COc1cc(COc2nn(Cc3ccccc3)cc2/C=C/C(=O)O)ccc1OCc1nc(-c2ccco2)oc1C` [Example 260, (2E)-3-{1-benzyl-3-[(4-{[2-(2-furyl)-5-methyl-1,3-oxazol-4-yl]methoxy}-3-methoxybenzyl)oxy]-1H-pyrazol-4-yl}-2-propenoic acid], the melting point was in the range of 175 to 176 °C.

`Cc1oc(-c2ccccc2)nc1COc1ccc(OCc2oc(-c3ccccc3)nc2/C=C/C(=O)O)cc1` [Example 261, (2E)-3-[5-({4-[(5-methyl-2-phenyl-1,3-oxazol-4-yl)methoxy]phenoxy}methyl)-2-phenyl-1,3-oxazol-4-yl]-2-propenoic acid] yielded a melting point of 209 to 210 °C.

In turn, `COc1cc(COc2nn(-c3ccccc3)cc2/C=C2\SC(=O)NC2=O)ccc1OCc1nc(-c2ccco2)oc1C` [Example 262, (5Z)-5-({3-[(4-{[2-(2-furyl)-5-methyl-1,3-oxazol-4-yl]methoxy}-3-methoxybenzyl)oxy]-1-phenyl-1H-pyrazol-4-yl}methylene)-1,3-thiazolidine-2,4-dione] gave a melting point of 252 to 253 °C.

`CCOC(=O)c1cnc(-c2ccccc2)nc1OCc1ccc(OCc2nc(-c3ccco3)oc2C)c(OC)c1` [Example 263, ethyl 4-[(4-{[2-(2-furyl)-5-methyl-1,3-oxazol-4-yl]methoxy}-3-methoxybenzyl)oxy]-2-phenylpyrimidine-5-carboxylate] returned a melting point of 142 to 143 °C.

As for `CCOC(=O)c1cn(C)nc1OCc1ccc(OCc2nc(-c3ccccc3)oc2C)c(OC)c1` [Example 264, ethyl 3-{[3-methoxy-4-(5-methyl-2-phenyl-1,3-oxazol-4-ylmethoxy)benzyl]oxy}-1-methyl-1H-pyrazole-4-carboxylate], the melting point fell in the range of 134 to 135 °C.

As for `COc1cc(COc2nn(C)cc2C(=O)O)ccc1OCc1nc(-c2ccccc2)oc1C` [Example 265, 3-{[3-methoxy-4-(5-methyl-2-phenyl-1,3-oxazol-4-ylmethoxy)benzyl]oxy}-1-methyl-1H-pyrazole-4-carboxylic acid], the melting point was 169 to 170 °C.

`COc1cc(COc2nn(C)cc2CO)ccc1OCc1nc(-c2ccccc2)oc1C` [Example 266, (3-{[3-methoxy-4-(5-methyl-2-phenyl-1,3-oxazol-4-ylmethoxy)benzyl]oxy}-1-methyl-1H-pyrazol-4-yl)methanol] showed a melting point of 108 to 109 °C.

The compound `COc1cc(COc2nn(C)cc2C=O)ccc1OCc1nc(-c2ccccc2)oc1C` [Example 267, 3-{[3-methoxy-4-(5-methyl-2-phenyl-1,3-oxazol-4-ylmethoxy)benzyl]oxy}-1-methyl-1H-pyrazole-4-carbaldehyde] registered a melting point of 123 to 124 °C.

Take `COc1cc(COc2nn(C)cc2C(N)=O)ccc1OCc1nc(-c2ccccc2)oc1C` [Example 268, 3-{[3-methoxy-4-(5-methyl-2-phenyl-1,3-oxazol-4-ylmethoxy)benzyl]oxy}-1-methyl-1H-pyrazole-4-carboxamide]: the melting point fell in the range of 168 to 169 °C.

`COc1cc(COc2nn(C)cc2C(=O)N(C)OC)ccc1OCc1nc(-c2ccccc2)oc1C` [Example 269, N-methoxy-N-methyl-3-{[3-methoxy-4-(5-methyl-2-phenyl-1,3-oxazol-4-ylmethoxy)benzyl]oxy}-1-methyl-1H-pyrazole-4-carboxamide] gave a melting point of 138 to 139 °C.

`COc1cc(COc2nn(C)cc2C(C)=O)ccc1OCc1nc(-c2ccccc2)oc1C` [Example 270, 1-(3-{[3-methoxy-4-(5-methyl-2-phenyl-1,3-oxazol-4-ylmethoxy)benzyl]oxy}-1-methyl-1H-pyrazol-4-yl)ethanone] had a melting point of 170 to 171 °C.

Compound `COc1cc(COc2nn(C)cc2C(C)O)ccc1OCc1nc(-c2ccccc2)oc1C` (centres unmarked) [Example 271, 1-(3-{[3-methoxy-4-(5-methyl-2-phenyl-1,3-oxazol-4-ylmethoxy)benzyl]oxy}-1-methyl-1H-pyrazol-4-yl)ethanol] showed a melting point of 94 to 95 °C.

Turning to `CCOC(=O)c1cn(-c2ccccc2)nc1OCc1ccc(OCc2nc(-c3ccccc3)oc2C)c(OC)c1` [Example 272, ethyl 3-{[3-methoxy-4-(5-methyl-2-phenyl-1,3-oxazol-4-ylmethoxy)benzyl]oxy}-1-phenyl-1H-pyrazole-4-carboxylate], the melting point lay in the range of 160 to 161 °C.

The compound `COc1cc(COc2nn(-c3ccccc3)cc2C(=O)O)ccc1OCc1nc(-c2ccccc2)oc1C` [Example 273, 3-{[3-methoxy-4-(5-methyl-2-phenyl-1,3-oxazol-4-ylmethoxy)benzyl]oxy}-1-phenyl-1H-pyrazole-4-carboxylic acid] returned a melting point of 209 to 210 °C.

Regarding `COc1cc(COc2nn(-c3ccccc3)cc2C=O)ccc1OCc1nc(-c2ccccc2)oc1C` [Example 275, 3-{[3-methoxy-4-(5-methyl-2-phenyl-1,3-oxazol-4-ylmethoxy)benzyl]oxy}-1-phenyl-1H-pyrazole-4-carbaldehyde], the melting point lay within 142 to 143 °C.

The compound `COc1cc(COc2nn(-c3ccccc3)cc2C(N)=O)ccc1OCc1nc(-c2ccccc2)oc1C` [Example 276, 3-{[3-methoxy-4-(5-methyl-2-phenyl-1,3-oxazol-4-ylmethoxy)benzyl]oxy}-1-phenyl-1H-pyrazole-4-carboxamide] showed a melting point of 190 to 191 °C.

Compound `COc1cc(CC(=O)Nc2nn(-c3ccccc3)cc2C=O)ccc1OCc1nc(-c2ccccc2)oc1C` [Example 277, N-(4-formyl-1-phenyl-1H-pyrazol-3-yl)-2-{3-methoxy-4-[(5-methyl-2-phenyl-1,3-oxazol-4-yl)methoxy]phenyl}acetamide] registered a melting point of 156 to 158 °C.

`COc1cc(COc2nn(-c3ccccc3)cc2C#N)ccc1OCc1nc(-c2ccccc2)oc1C` [Example 278, 3-{[3-methoxy-4-(5-methyl-2-phenyl-1,3-oxazol-4-ylmethoxy)benzyl]oxy}-1-phenyl-1H-pyrazole-4-carbonitrile] showed a melting point of 174 to 175 °C.

For `COc1cc(COc2nc(-c3ccccc3)ncc2C=O)ccc1OCc1nc(-c2ccco2)oc1C` [Example 280, 4-[(4-{[2-(2-furyl)-5-methyl-1,3-oxazol-4-yl]methoxy}-3-methoxybenzyl)oxy]-2-phenylpyrimidine-5-carbaldehyde], the melting point lay within 143 to 144 °C.

The values above are taken from patent US7368578B2, “Five-membered heterocyclic compounds” (Takeda Pharmaceutical Company Limited, priority 2002, dated 2008).
